Laboratory results from patent US20260115250A1, “METHODS OF TREATING AGE-RELATED MACULAR DEGENERATION” (Character Biosciences, Inc., priority 2022, published 2026).
Peptide text beside a SMILES is read from it.

Assays:
ARPE-19 cells [1] = experiment: ARPE-19 GAG-dependent cholesterol import (with or without heparin); format: cell-based, human; settings: ARPE-19, 10 μM peptide
Protocol: ARPE-19 cells were seeded on 96-well plates at 25,000 cells per well and grown to confluence. A 2× solution of 500 μM DMPC and 50 μM BODIPY-Cholesterol with or without 100 µg/mL heparin was prepared in serum free DMEM: F12. Peptides were diluted to 20 μM in serum free DMEM: F12 (a 2× solution). Peptides were added to lipid solution in equal parts (60 μL each) and incubated for 1 hour at 37° C. ARPE-19 cells were serum starved in serum free DMEM: F12 for 1 hour at 37° C. Peptide: Lipid complexes (100 μL total volume per well) were transferred to ARPE-19 cells for 2 hours at 37° C. Cells were washed, fixed, and intracellular fluorescence was read on Promega GloMax at 475 nm excitation, 500-550 emission. Fluorescence values were background corrected from no treatment conditions. Data are presented ±SD for 2 runs.

ARPE-19 cells [2] = experiment: ARPE-19 cell lysis (Sytox Green); format: cell-based, human; settings: 3.16-100 μM peptide, 2 h
Protocol: These figures illustrate ARPE-19 cell lysis. ARPE-19 cells were grown in 96-well plates to 75-85% confluence. Peptides at 10 mM were diluted in serum-free DMEM:F12 media into a 20 μM working solution (a 2× solution). Sytox Green was prepared in serum-free DMEM:F12 at a 1 μM working solution (a 2× solution). Equivalent volumes of the peptide and Sytox Green solutions were added to empty 96-well plates and mixed gently. Final peptide concentration was 10 μM. ARPE-19 cells (˜80% confluent in 96-well plates) were washed with DPBS and then incubated in 100 μL of peptide/Sytox Green mixture for 2 h at 37° C. Cells were fixed in 4% paraformaldehyde solution in DPBS and then incubated in 10 μM Hoechst solution for 10 min, washed, and imaged on a Yokogawa CQ1 high-content imager. CellPathfinder software was used to count live/dead cells in 4 fields of view at 20× magnification. Percent (%) lysis was calculated by dividing the number of Sytox Green+ nuclei by the total number of Hoechst+ nuclei.
ARPE-19 cells were grown in 96-well plates to 75-85% confluence. Peptides at 10 mM were diluted in serum-free DMEM: F12 media to solutions between […]. Sytox Green was prepared in serum-free DMEM: F12 media at a 1 μM working solution. Equivalent volumes of the peptide and Sytox Green solutions were added to empty 96-well plates and mixed gently. Final peptide concentration was 3.16-100 μM. ARPE-19 cells (˜80% confluent in 96-well plates) were washed with DPBS and then incubated in 100 μL of peptide/Sytox Green mixture for 2 h at 37° C. Cells were fixed in 4% paraformaldehyde solution in DPBS and then incubated in 10 μM Hoechst solution for 10 min, washed, and imaged on a Yokogawa CQ1 high-content imager. CellPathfinder software was used to count live/dead cells in 4 fields of view at 20× magnification. Percent (%) lysis was calculated by dividing the number of Sytox Green+ nuclei by the total number of Hoechst+ nuclei. Non-linear regression was used to calculate EC50 values.

ARPE-19 cells [3] = experiment: ARPE-19 cholesterol import (BODIPY-Cholesterol); format: cell-based, human
Protocol: FIG. 12 and FIGS. 14A-14B illustrate the results of ARPE-19 cholesterol import testing. ARPE-19 cells were seeded on 96-well plates at 25,000 cells per well and grown to confluence. A 2× solution of 500 μM DMPC and 50 μM BODIPY-Cholesterol were prepared in serum free DMEM: F12. Peptides were diluted to 20 μM in serum free DMEM: F12 (a 2× solution). Peptides were added to lipid solution in equal parts (60 μL each) and were incubated for 1 hour at 37° C. ARPE-19 cells were serum starved in serum free DMEM: F12 for 1 hour at 37° C. Peptide: Lipid complexes (100 μL total volume per well) were transferred to ARPE-19 cells for 2 hours at 37° C. Cells were washed, fixed, and intracellular fluorescence was read on Promega GloMax at 475 nm excitation, 500-550 emission. Fluorescence values were background corrected from no treatment conditions. Data are presented as mean+SD for two runs.
FIG. 15 illustrates ARPE-19 cholesterol import titration curves for a subset of the peptides. ARPE-19 cells were seeded on 96-well plates at 25,000 cells per well and grown to confluence. A 2× solution of 500 μM DMPC and 50 μM BODIPY-Cholesterol was prepared in serum free DMEM: F12. Peptides were diluted to 0.74-60 μM in serum free DMEM: F12 (2× solutions). Peptides were added to lipid solution in equal parts (60 μL each) to create final peptide concentrations of 0.37-30 µM and incubated for 1 hour at 37° C. ARPE-19 cells were serum starved in serum free DMEM: F12 for 1 hour at 37° C. Peptide: Lipid complexes (100 μL total volume per well) were transferred to ARPE-19 cells for 2 hours at 37° C. Cells were washed, fixed, and intracellular fluorescence was read on Promega GloMax at 475 nm excitation, 500-550 emission. Fluorescence values were background corrected from no treatment conditions. […]
ARPE-19 cells were seeded on 96-well plates at 25,000 cells per well and grown to confluence. […] Cells were washed, fixed, and intracellular fluorescence was read on Promega GloMax at 475 nm excitation, 500-550 emission. Fluorescence values were background corrected from no treatment conditions. […]

HepG2 cells [4] = experiment: HepG2 cholesterol import (BODIPY-Cholesterol); format: cell-based; settings: HepG2, peptide:lipid complexes from 30 μM diluted 1:3
Protocol: HepG2 cells were seeded on a 96-well plate at 10,000 cells per well and grown to confluence. A solution of 500 μM DMPC and 50 μM BODIPY-Cholesterol was prepared in serum free EMEM. Peptides were diluted to 20 μM in serum free EMEM (a 2× solution). Peptides were added to lipid solution in equal parts (60 μL each) to create final 1× concentration and incubated for 1 hour at 37° C. HepG2 cells were serum starved in serum-free EMEM for 1 hour at 37° C. Peptide: Lipid complexes (100 μL total volume per well) were transferred to HepG2 cells for 2 hours at 37° C. Cells were washed, fixed, and intracellular fluorescence was read on Promega GloMax at 475 nm excitation, 500-550 emission. Fluorescence values were background corrected from no treatment conditions. Data are presented as mean+SD for two runs.
HepG2 cells were seeded on 96-well plates at 10,000 cells per well and grown to confluence. Peptide: Lipid complexes were created by preparing a solution of serum-free EMEM containing 30 μM peptide, 750 μM DMPC, and 75 μM BODIPY-Cholesterol. Peptide: Lipid complexes were serially diluted 1:3 for 5 concentrations, and incubated for 1 hour at 37° C. […] Cells were washed, fixed, and intracellular fluorescence was read on Promega GloMax at 475 nm excitation, 500-550 emission. Fluorescence values were background corrected from no treatment conditions. […]

HepG2 cells [5] = experiment: HepG2 GAG dependent cholesterol import (with or without heparin); format: cell-based; settings: HepG2, 10 μM peptide, with or without 100 μg/mL heparin
Protocol: HepG2 cells were seeded on 96-well plates at 10,000 cells per well and grown to confluence. A 2× solution of 500 μM DMPC and 50 μM BODIPY-Cholesterol with or without 100 μg/mL heparin was prepared in serum free EMEM. Peptides were diluted to 20 μM in serum-free EMEM (a 2× solution). Peptides were added to lipid solution in equal parts (60 μL each) and incubated for 1 hour at 37° C. HepG2 cells were serum starved in serum-free EMEM for 1 hour at 37° C. Peptide: Lipid complexes (100 μL total volume per well) were transferred to HepG2 cells for 2 hours at 37° C. Cells were washed, fixed, and intracellular fluorescence was read on Promega GloMax at 475 nm excitation, 500-550 emission. Fluorescence values were background corrected from no treatment conditions. Data are presented ±SD for 2 runs.

[6] = DMPC solubility assay, 0.5 mM DMPC (turbidity reduction); format: biochemical; settings: for DMPC solubilizing activity: FIGS. 2A-2D and 3A-3C
Outline: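 Peptides (100 μM final, or 3.16-100 μM for titrations) incubated with 0.5 mM DMPC in water for 15 minutes at room temperature. Turbidity read as absorbance at 405 nm; EC50 from non-linear regression, mean+SD over two runs.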

LDLR = LDLR (Homo sapiens, UniProt P01130); experiment: KD (µM)
Sequence of LDLR (P01130 22-860 limits assumed): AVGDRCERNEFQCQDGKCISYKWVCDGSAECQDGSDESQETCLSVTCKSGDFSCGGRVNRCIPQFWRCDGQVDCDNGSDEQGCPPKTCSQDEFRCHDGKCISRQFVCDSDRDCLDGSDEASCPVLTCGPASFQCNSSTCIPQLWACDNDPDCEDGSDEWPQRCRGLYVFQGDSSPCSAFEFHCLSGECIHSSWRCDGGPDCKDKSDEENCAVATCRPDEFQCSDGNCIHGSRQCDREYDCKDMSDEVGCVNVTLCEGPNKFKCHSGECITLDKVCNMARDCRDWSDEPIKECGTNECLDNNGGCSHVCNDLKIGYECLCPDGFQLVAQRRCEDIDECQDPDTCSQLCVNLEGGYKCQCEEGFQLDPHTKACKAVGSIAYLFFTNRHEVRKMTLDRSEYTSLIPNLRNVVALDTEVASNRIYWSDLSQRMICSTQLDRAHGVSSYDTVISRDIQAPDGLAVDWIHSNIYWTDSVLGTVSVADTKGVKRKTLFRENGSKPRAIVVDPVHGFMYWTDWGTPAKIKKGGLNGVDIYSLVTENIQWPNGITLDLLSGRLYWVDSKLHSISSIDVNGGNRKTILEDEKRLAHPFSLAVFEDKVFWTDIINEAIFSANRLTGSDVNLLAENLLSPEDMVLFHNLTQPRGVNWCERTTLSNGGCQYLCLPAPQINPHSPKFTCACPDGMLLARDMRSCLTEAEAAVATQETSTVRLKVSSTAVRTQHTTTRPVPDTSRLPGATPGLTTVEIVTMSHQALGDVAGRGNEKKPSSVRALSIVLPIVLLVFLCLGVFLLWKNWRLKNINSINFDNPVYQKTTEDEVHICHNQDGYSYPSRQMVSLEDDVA
From the text: Table printed on a drawing sheet, FIG. 23
Title: Buffer: HBS + 0.05% P20
Head of the field: KD (µM)
The patent's description of the figure: FIG. 23 is a table showing the binding kinetics results of LDLR binding assays (SPR), high surfactant preparation as described herein for select peptides shown in FIG. 1A-1I.
First copying reader's note: Middle of three side-by-side panels of FIG. 23; the KD cells hold value ± error together.
Where the first naming reader finds the target: description_of_the_figure: FIG. 23 is a table showing the binding kinetics results of LDLR binding assays (SPR)

[7] = DMPC solubility titration, 1 mM DMPC; format: biochemical; settings: 3.16-100 μM peptides, 15 minutes
Protocol: FIGS. 4A-4B illustrate a screening assay based on DMPC solubility, measured by reducing turbidity of DMPC liposome solutions, for a subset of the peptides in FIGS. 1B-1I. FIGS. 4A-4B illustrate DMPC solubility titration curves. Peptide stocks were diluted to 200 μM in H2O (a 2× solution) and serially diluted in H2O over 4 concentrations, then 50 μL of peptide solutions were distributed in triplicate into 96-well plates. A 2 mM solution of 1,2-dimyristoyl-sn-glycero-3-phosphocholine (DMPC) in H2O was prepared, and using a multichannel pipet, 50 μL DMPC solution was rapidly added to the plate. Peptide and lipid solutions were incubated at room temperature for 15 minutes with final concentrations of 3.16-100 μM peptides and 1 mM DMPC. After 15 minutes, absorbance was read on a plate reader at 405 nm. […] Data are presented as mean+SD over two runs. Non-linear regression was used to calculate EC50 values.

HMC3 cells = experiment: HMC3 cholesterol efflux; format: cell-based, human

Row | Kd (LDLR) [µM] | EC50 [7] [µM] | Compound | GAG dependence of cholesterol import (ARPE-19 cells [1]) | EC50 (ARPE-19 cells [2]) [µM] | cholesterol import titration (ARPE-19 cells [3]; ARPE-19, 0.37-30 μM peptide, FIG. 15) | cholesterol import titration (HepG2 cells [4]) | GAG dependence of cholesterol import (HepG2 cells [5]) | EC50 ([6]; 3.16-100 μM peptides, 15 minutes) [µM] | DMPC solubilizing activity [6] | cholesterol efflux titration (HMC3 cells; HMC3, 0-100 μM peptide, LXR agonist) | cholesterol efflux in the presence of LXR agonist (HMC3 cells; HMC3, 20 μM peptide, 4 hours) | cholesterol import titration (ARPE-19 cells [3]; ARPE-19, peptide:lipid complexes from 30 μM diluted 1:3, FIG. 16)
1 |  |  | CSCC[C@H](NC(=O)[C@H](CC(C)C)NC(=O)[C@H](CC(=O)O)NC(=O)[C@H](CCCCN)NC(=O)CNC(=O)[C@H](Cc1ccc(O)cc1)NC(=O)[C@H](CC(=O)O)NC(=O)[C@@H](NC(=O)[C@@H](NC(=O)[C@@H](NC(=O)[C@H](CCC(N)=O)NC(=O)[C@H](Cc1ccccc1)NC(=O)[C@H](Cc1ccc(O)cc1)NC(=O)[C@H](CCC(N)=O)NC(=O)[C@H](CO)NC(=O)[C@@H](NC(=O)[C@H](CC(C)C)NC(=O)[C@H](CO)NC(=O)[C@H](CCCNC(=N)N)NC(=O)[C@H](CC(C)C)NC(=O)[C@H](CC(C)C)NC(=O)[C@H](CCCNC(=N)N)NC(=O)[C@H](CCCCN)NC(=O)[C@H](CCCNC(=N)N)NC(=O)[C@H](CC(C)C)NC(=O)[C@H](CCCCN)NC(=O)[C@H](CCCNC(=N)N)NC(=O)[C@H](CC(C)C)NC(=O)[C@@H](N)Cc1c[nH]cn1)C(C)C)[C@@H](C)O)C(C)C)[C@@H](C)O)C(=O)O [T-027] (H-HLRKLRKRLLRSLVSQYFQTVTDYGKDLM-OH; N-terminus and C-terminus assumed) | rely on GAG binding for cholesterol import activity | 40.1 | concentration-dependent increase in cholesterol import | concentration-dependent cholesterol import activity | rely on GAG binding for cholesterol import activity | 56.6 | significant activity |  |  | 
2 | 150 ± 41.7 |  | CC(C)C[C@H](NC(=O)[C@H](CCCNC(=N)N)NC(=O)[C@H](CC(=O)O)NC(=O)[C@H](CCC(N)=O)NC(=O)[C@H](CC(C)C)NC(=O)[C@H](CCCCN)NC(=O)[C@H](CC(=O)O)NC(=O)CNC(=O)[C@H](CC(=O)O)NC(=O)[C@H](CCCNC(=N)N)NC(=O)[C@H](Cc1ccccc1)NC(=O)[C@H](CC(C)C)NC(=O)[C@H](CCCNC(=N)N)NC(=O)[C@H](CCCCN)NC(=O)[C@H](CCCNC(=N)N)NC(=O)[C@H](CC(C)C)NC(=O)[C@H](CCCCN)NC(=O)[C@H](CCCNC(=N)N)NC(=O)[C@H](CC(C)C)NC(=O)[C@@H](N)Cc1c[nH]cn1)C(=O)N[C@@H](C)C(=O)N[C@@H](CCC(=O)O)C(=O)N[C@@H](Cc1ccc(O)cc1)C(=O)N[C@@H](CCC(N)=O)C(=O)N[C@@H](C)C(=O)N[C@@H](CCCNC(=N)N)C(=O)N[C@@H](C)C(=O)N[C@@H](CCCCN)C(=O)N[C@@H](CCC(=O)O)C(=O)N[C@@H](C)C(=O)N[C@@H](Cc1ccccc1)C(=O)N[C@@H](CC(=O)O)C(=O)N[C@@H](CCCNC(=N)N)C(=O)O [T-060] (H-HLRKLRKRLFRDGDKLQDRLAEYQARAKEAFDR-OH; N-terminus and C-terminus assumed) |  |  |  |  |  |  |  |  |  | 
3 |  | 15.8 | CC(C)C[C@H](NC(=O)[C@H](C)NC(=O)[C@H](CCCNC(=N)N)NC(=O)[C@H](Cc1ccccc1)NC(=O)[C@H](CCCNC(=N)N)NC(=O)[C@H](CCC(=O)O)NC(=O)[C@@H](N)Cc1c[nH]c2ccccc12)C(=O)N[C@@H](Cc1ccccc1)C(=O)N[C@@H](CCCCN)C(=O)N[C@@H](CCC(=O)O)C(=O)N[C@@H](CC(C)C)C(=O)N[C@@H](C)C(=O)N[C@@H](CC(=O)O)C(=O)N[C@@H](Cc1ccc(O)cc1)C(=O)N[C@@H](Cc1ccccc1)C(=O)N[C@@H](CCCNC(=N)N)C(=O)N[C@@H](CC(=O)O)C(=O)N[C@@H](C)C(=O)O [T-086] (H-WERFRALFKELADYFRDA-OH; N-terminus and C-terminus assumed) |  |  |  |  |  |  | significant activity | concentration-dependent increase in cholesterol efflux | greater cholesterol efflux | not able to increase cholesterol import
